# Reference: patent US10736968B2, “Cellular signalling inhibitors, their formulations and methods thereof” (INVICTUS ONCOLOGY PVT. LTD., priority 2016, dated 2020)
# What was measured:
# [1] = test system: AKT-mTOR-p70S6K pathway; test: Downstream signaling in macrophages after drug washout and MCSF exposure (Western blot); type: cell-based; conditions: 4 hours drug, washout 7 h or 48 h, MCSF 2 h
# [2] = target: T1, CSF1R (Mus musculus, UniProt P09581); test: CSF1R phosphorylation in RAW264.7 cells after CSF-1 stimulation (Western blot); type: cell-based; conditions: 67 nM, different time points, then CSF1 10 ng/ml for 20 min
# T1 construct: endogenous in cells
# T1 sequence (P09581 20-977): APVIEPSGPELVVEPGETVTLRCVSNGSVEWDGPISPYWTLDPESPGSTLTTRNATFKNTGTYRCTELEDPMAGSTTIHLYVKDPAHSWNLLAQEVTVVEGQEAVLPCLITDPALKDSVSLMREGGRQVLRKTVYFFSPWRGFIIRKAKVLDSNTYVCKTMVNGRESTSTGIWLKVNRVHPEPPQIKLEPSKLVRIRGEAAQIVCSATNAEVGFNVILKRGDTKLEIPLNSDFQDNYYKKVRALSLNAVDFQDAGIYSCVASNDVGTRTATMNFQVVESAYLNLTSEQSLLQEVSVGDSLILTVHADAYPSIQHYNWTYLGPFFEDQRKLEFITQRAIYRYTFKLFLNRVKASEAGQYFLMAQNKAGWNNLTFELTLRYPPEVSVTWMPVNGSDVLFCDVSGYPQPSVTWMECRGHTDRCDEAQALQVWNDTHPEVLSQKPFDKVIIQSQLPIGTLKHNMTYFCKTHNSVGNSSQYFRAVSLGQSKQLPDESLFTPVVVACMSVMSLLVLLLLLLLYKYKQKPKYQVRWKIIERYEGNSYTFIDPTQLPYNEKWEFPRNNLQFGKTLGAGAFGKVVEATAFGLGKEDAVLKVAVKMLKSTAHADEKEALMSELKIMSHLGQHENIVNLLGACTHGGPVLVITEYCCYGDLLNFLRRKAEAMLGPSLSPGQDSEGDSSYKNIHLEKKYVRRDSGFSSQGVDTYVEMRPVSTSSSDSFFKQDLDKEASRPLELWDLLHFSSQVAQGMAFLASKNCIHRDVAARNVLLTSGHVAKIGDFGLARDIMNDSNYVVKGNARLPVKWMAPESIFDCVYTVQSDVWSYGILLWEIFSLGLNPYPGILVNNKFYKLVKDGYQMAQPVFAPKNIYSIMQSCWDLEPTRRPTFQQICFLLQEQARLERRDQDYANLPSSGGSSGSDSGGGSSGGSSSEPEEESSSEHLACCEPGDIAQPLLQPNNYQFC
# Experimental: FIG. 2. (a) Expression of phospho-CSF1R in RAW264.7 cells at different time points post-treatment with mCSF. (b-c) Treatment with either BLZ-945 (a current gold standard small molecule inhibitor of CSF1R) or AK750 (the formulated form of BLN101) across different time points followed by CSF-1 (10 ng/mL) stimulation for 20 minutes. After stimulation the cells were washed with cold PBS and the cell lysates were collected.
# Activity Studies of Compound of Formula I • Efficacy of BLN101 vs BLZ945 on the ability to inhibit CSF1R in vitro is studied. RAW264.7 cells are treated with BLZ945 (67 nM) or BLN101 (67 nM) for different time points, at the end of which the cells were exposed to CSF1 (10 ng/ml) for 20 min. The cells were then lysed and analyzed for phosphorylated CSF1R levels. […] Efficacy of BLN101 (in formulation AK750) vs BLZ945 on increase in iNOS expression in vitro is studied. It is observed that exposure to Tumor Conditioned Media over 24 h decreases INOS levels. Measurement of the expression of iNOS in RAW264.7 cells at different time points after treatment with B-16-tumour conditioned media followed by BLZ-945 or BLN101 (as AK750 formulation) treatment across different time points. […] At different time-points, the cells are harvested and analyzed the population for M1 (MHCII+, CD86+, CD80+) or M2 (CD206+) markers using fluorescence activated cell sorting (FIG. 5d). […]
SMILES,AKT-mTOR-p70S6K downstream signaling [1],inhibition of CSF1R (phosphorylated CSF1R levels) [2],inhibition of CSF1R (phosphorylated CSF1R levels) ([2]; listed as BLZ101)
CNC(=O)c1cc(Oc2ccc3nc(N[C@@H]4CCCC[C@H]4O)sc3c2)ccn1 [BLZ-945],not by BLZ945 and PLX3397,,
CNC(=O)c1cc(Oc2ccc3nc(NC4CCCC[C@H]4OC(=O)CCC(=O)O[C@H]4CC[C@@]5(C)C(=CC[C@H]6[C@@H]7CC[C@H](C(C)CCCC(C)C)[C@@]7(C)CC[C@@H]65)C4)sc3c2)ccn1 (stereo in doubt) [BLN101],,sustained and statistically significantly greater inhibition of CSF1R as compared with BLZ945,potent inhibitor of CSF1R
